Measurements reported in ChEMBL document CHEMBL2434921, “New synthetic aliphatic sulfonamido-quaternary ammonium salts as anticancer chemotherapeutic agents” (2013).
Active and inactive are the calls of the source. The calls are words filed in the database; no cut-off is given here.

Assays:
[1] = molecular target: Rho-related GTP-binding protein RhoB (Homo sapiens) (UniProt P62745); assay: Transactivation of RhoB (unknown origin) transfected in human HeLa cells at 5 uM measured over 10 secs by dual luciferase reporter gene assay; type: cell-based
Chain of Rho-related GTP-binding protein RhoB (Homo sapiens) (P62745 whole entry): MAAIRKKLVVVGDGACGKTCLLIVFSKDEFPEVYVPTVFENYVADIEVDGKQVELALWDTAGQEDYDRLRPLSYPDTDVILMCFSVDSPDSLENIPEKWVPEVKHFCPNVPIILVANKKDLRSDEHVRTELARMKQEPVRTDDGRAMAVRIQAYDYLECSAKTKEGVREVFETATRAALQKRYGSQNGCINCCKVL

[2] = system: NCI-H23; assay: Growth inhibition of human NCI-H23 cells after 48 hrs by SRB assay; type: functional; conditions: NCI-H23, 48 h
[3] = system: PC-3; assay: Growth inhibition of human PC3 cells at 1 uM after 48 hrs by SRB assay; values are per cent of control; conditions: PC-3, 48 h
[4] = system: HCT-15; assay: Growth inhibition of human HCT15 cells after 48 hrs by SRB assay; type: functional; conditions: HCT-15, 48 h
[5] = system: NCI-H23; assay: Growth inhibition of human NCI-H23 cells at 1 uM after 48 hrs by SRB assay; values are per cent of control; conditions: NCI-H23, 48 h
[6] = system: NCI-H23; assay: Growth inhibition of human NCI-H23 cells at 0.1 uM after 48 hrs by SRB assay; values are per cent of control; conditions: NCI-H23, 48 h
[7] = system: NUGC-3; assay: Growth inhibition of human NUGC3 cells after 48 hrs by SRB assay; type: functional; conditions: NUGC-3, 48 h
[8] = system: NCI-H23; assay: Growth inhibition of human NCI-H23 cells at 3 uM after 48 hrs by SRB assay; values are per cent of control; conditions: NCI-H23, 48 h
[9] = system: NCI-H23; assay: Growth of human NCI-H23 cells at 0.3 uM after 48 hrs by SRB assay; conditions: NCI-H23, 48 h
[10] = system: HCT-15; assay: Growth of human HCT15 cells at 0.3 uM after 48 hrs by SRB assay; conditions: HCT-15, 48 h
[11] = system: ACHN; assay: Growth inhibition of human ACHN cells after 48 hrs by SRB assay; type: functional
[12] = system: MDA-MB-231; assay: Growth inhibition of human MDA-MB-231 cells at 0.3 uM after 48 hrs by SRB assay; values are per cent of control; conditions: MDA-MB-231, 48 h
[13] = system: HCT-15; assay: Growth inhibition of human HCT15 cells at 10 uM after 48 hrs by SRB assay; values are per cent of control; conditions: HCT-15, 48 h
[14] = system: NUGC-3; assay: Growth inhibition of human NUGC3 cells at 10 uM after 48 hrs by SRB assay; values are per cent of control; conditions: NUGC-3, 48 h
[15] = system: ACHN; assay: Growth inhibition of human ACHN cells at 3 uM after 48 hrs by SRB assay; values are per cent of control
[16] = system: ACHN; assay: Growth of human ACHN cells at 10 uM after 48 hrs by SRB assay
[17] = system: NUGC-3; assay: Growth of human NUGC3 cells at 0.3 uM after 48 hrs by SRB assay; conditions: NUGC-3, 48 h
[18] = system: MDA-MB-231; assay: Growth inhibition of human MDA-MB-231 cells after 48 hrs by SRB assay; type: functional; conditions: MDA-MB-231, 48 h
[19] = system: PC-3; assay: Growth of human PC3 cells at 10 uM after 48 hrs by SRB assay; conditions: PC-3, 48 h
[20] = system: ACHN; assay: Growth of human ACHN cells at 0.3 uM after 48 hrs by SRB assay
[21] = system: NUGC-3; assay: Growth of human NUGC3 cells at 1 uM after 48 hrs by SRB assay; conditions: NUGC-3, 48 h
[22] = system: NCI-H23; assay: Growth of human NCI-H23 cells at 10 uM after 48 hrs by SRB assay; conditions: NCI-H23, 48 h
[23] = system: PC-3; assay: Growth inhibition of human PC3 cells at 3 uM after 48 hrs by SRB assay; values are per cent of control; conditions: PC-3, 48 h
[24] = system: PC-3; assay: Growth inhibition of human PC3 cells at 0.3 uM after 48 hrs by SRB assay; values are per cent of control; conditions: PC-3, 48 h
[25] = system: ACHN; assay: Growth of human ACHN cells at 0.1 uM after 48 hrs by SRB assay
[26] = system: NUGC-3; assay: Growth of human NUGC3 cells at 0.1 uM after 48 hrs by SRB assay; conditions: NUGC-3, 48 h
[27] = system: ACHN; assay: Growth inhibition of human ACHN cells at 1 uM after 48 hrs by SRB assay; values are per cent of control
[28] = system: HCT-15; assay: Growth inhibition of human HCT15 cells at 0.1 uM after 48 hrs by SRB assay; values are per cent of control; conditions: HCT-15, 48 h
[29] = system: PC-3; assay: Growth inhibition of human PC3 cells at 0.1 uM after 48 hrs by SRB assay; values are per cent of control; conditions: PC-3, 48 h
[30] = system: MDA-MB-231; assay: Growth of human MDA-MB-231 cells at 1 uM after 48 hrs by SRB assay; conditions: MDA-MB-231, 48 h
[31] = system: PC-3; assay: Growth inhibition of human PC3 cells after 48 hrs by SRB assay; type: functional; conditions: PC-3, 48 h
[32] = system: MDA-MB-231; assay: Growth of human MDA-MB-231 cells at 0.1 uM after 48 hrs by SRB assay; conditions: MDA-MB-231, 48 h
[33] = system: HCT-15; assay: Growth of human HCT15 cells at 3 uM after 48 hrs by SRB assay; conditions: HCT-15, 48 h
[34] = system: HCT-15; assay: Growth inhibition of human HCT15 cells at 1 uM after 48 hrs by SRB assay; values are per cent of control; conditions: HCT-15, 48 h
[35] = system: MDA-MB-231; assay: Growth of human MDA-MB-231 cells at 3 uM after 48 hrs by SRB assay; values are per cent of control; conditions: MDA-MB-231, 48 h
[36] = system: NUGC-3; assay: Growth inhibition of human NUGC3 cells at 3 uM after 48 hrs by SRB assay; values are per cent of control; conditions: NUGC-3, 48 h
[37] = system: MDA-MB-231; assay: Growth of human MDA-MB-231 cells at 10 uM after 48 hrs by SRB assay; conditions: MDA-MB-231, 48 h

Row | Structure (SMILES) | Activity [1] | GI50 [2] | growth, % of control at 1 µM [3] | GI50 [4] | growth, % of control at 1 µM [5] | growth, % of control at 0.1 µM [6] | GI50 [7] | growth, % of control at 3 µM [8] | growth, % of control at 0.3 µM [9] | growth, % of control at 0.3 µM [10] | GI50 [11] | growth, % of control at 0.3 µM [12] | growth, % of control at 10 µM [13] | growth, % of control at 10 µM [14] | growth, % of control at 3 µM [15] | growth, % of control at 10 µM [16] | growth, % of control at 0.3 µM [17] | GI50 [18] | growth, % of control at 10 µM [19] | growth, % of control at 0.3 µM [20] | further results
1 | CCCCCCCCCCCCCCCCS(=O)(=O)N(C)CCC[N+](C)(C)CC | Active | 0.43 µM | 25% | 0.78 µM | 58.8% | 70.4% | 0.2 µM | 14.8% | 73.1% | 87.4% | 0.95 µM | 89.2% | 15.7% | -27.9% | 35.6% | 1.6% | 63.4% | 0.69 µM | -28.9% | 92.1% | growth, % of control at 1 µM [21]: 16.9%; growth, % of control at 10 µM [22]: -22.7%; growth, % of control at 3 µM [23]: -17.9%; growth, % of control at 0.3 µM [24]: 88.2%; growth, % of control at 0.1 µM [25]: 102%; growth, % of control at 0.1 µM [26]: 76.9%; growth, % of control at 1 µM [27]: 64.5%; growth, % of control at 0.1 µM [28]: 85.4%; growth, % of control at 0.1 µM [29]: 91.6%; growth, % of control at 1 µM [30]: 54.4%; GI50 [31]: 0.36 µM; growth, % of control at 0.1 µM [32]: 94.8%; growth, % of control at 3 µM [33]: 30.5%; growth, % of control at 1 µM [34]: 56.5%; growth, % of control at 3 µM [35]: 27.3%; growth, % of control at 3 µM [36]: -14.1%; growth, % of control at 10 µM [37]: 0%
2 | CCCCCCCCCCCCCCCCS(=O)(=O)N(C)CC[N+](C)(CC)CC | Active | 0.62 µM | 50.7% | 1.49 µM | 51.3% | 90.7% | 0.39 µM | 22.5% | 90.5% | 100% | 1.29 µM | 96.2% | 21.1% | 1.2% | 48.7% | 5% | 88.1% | 1.12 µM | -21.6% | 89.5% | growth, % of control at 1 µM [21]: 30.2%; growth, % of control at 10 µM [22]: 0.4%; growth, % of control at 3 µM [23]: 8.6%; growth, % of control at 0.3 µM [24]: 92.8%; growth, % of control at 0.1 µM [25]: 90.4%; growth, % of control at 0.1 µM [26]: 93.6%; growth, % of control at 1 µM [27]: 72.7%; growth, % of control at 0.1 µM [28]: 98.5%; growth, % of control at 0.1 µM [29]: 100%; growth, % of control at 1 µM [30]: 68.4%; GI50 [31]: 0.56 µM; growth, % of control at 0.1 µM [32]: 98.5%; growth, % of control at 3 µM [33]: 42.7%; growth, % of control at 1 µM [34]: 76.2%; growth, % of control at 3 µM [35]: 35.7%; growth, % of control at 3 µM [36]: 9.2%; growth, % of control at 10 µM [37]: 15.6%
3 | CCCCCCCCCCCCCCS(=O)(=O)NCCC[N+](C)(C)C [TRIMETHYL-[3-(TETRADECANE-1-SULFONYLAMINO)-PROPYL]-AMMONIUM IODIDE] | Active | 0.46 µM | 52.2% | 0.94 µM | 48.4% | 84.7% | 0.38 µM | -5.1% | 86.5% | 91.2% | 2.04 µM | 86.4% | 22% | 5.4% | 49.9% | 29.7% | 73.2% | 1.4 µM | -7.8% | 88.6% | growth, % of control at 1 µM [21]: 43.1%; growth, % of control at 10 µM [22]: -34.5%; growth, % of control at 3 µM [23]: 9.5%; growth, % of control at 0.3 µM [24]: 80.6%; growth, % of control at 0.1 µM [25]: 88%; growth, % of control at 0.1 µM [26]: 84.4%; growth, % of control at 1 µM [27]: 96.8%; growth, % of control at 0.1 µM [28]: 94.3%; growth, % of control at 0.1 µM [29]: 86.7%; growth, % of control at 1 µM [30]: 76.7%; GI50 [31]: 0.45 µM; growth, % of control at 0.1 µM [32]: 84.6%; growth, % of control at 3 µM [33]: 31.5%; growth, % of control at 1 µM [34]: 66.5%; growth, % of control at 3 µM [35]: 45.3%; growth, % of control at 3 µM [36]: 21.5%; growth, % of control at 10 µM [37]: 25.1%
